Laboratory results reported in ChEMBL document CHEMBL1201862, “PubChem BioAssay data set” (2004).
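Compound exposure: 48 hours, 5 concentrations, 96-well plates. GI50 marks 50% less growth.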 Active and inactive are the calls of the source. Cut-off read from the data, not from the text of the source: active = GI50 up to about 1.1 µM and inactive = higher.

Key:
Experiment in all cases: growth of human tumour cells (NCI), 48 h
[1] = test system: HCT-116
[2] = test system: EKVX
[3] = test system: SNB-19
[4] = test system: T47D
[5] = test system: Malme-3M
[6] = test system: OVCAR-5
[7] = test system: NCI-H522
[8] = test system: UO-31
[9] = test system: IGROV-1
[10] = test system: CAKI-1
[11] = test system: NCI-H460
[12] = test system: SK-MEL-28
[13] = test system: SR
[14] = test system: HOP-62
[15] = test system: OVCAR-4
[16] = test system: SK-MEL-5
[17] = test system: OVCAR-3
[18] = test system: HL-60
[19] = test system: U-251
[20] = test system: DU-145
[21] = test system: CCRF-CEM
[22] = test system: UACC-257
[23] = test system: MOLT-4
[24] = test system: HCT-15
[25] = test system: SN12C
[26] = test system: MDA-MB-435
[27] = test system: M14
[28] = test system: SW-620
[29] = test system: Hs-578T
[30] = test system: SK-MEL-2
[31] = test system: HT-29
[32] = test system: 786-0
[33] = test system: RPMI-8226
[34] = test system: MCF7
[35] = test system: KM12
[36] = test system: A549
[37] = test system: PC-3
[38] = test system: COLO 205
[39] = test system: RXF 393
[40] = test system: K562
[41] = test system: TK-10
[42] = test system: UACC-62
[43] = test system: MDA-N
[44] = test system: HOP-92
[45] = test system: NCI-H226
[46] = test system: ACHN
[47] = test system: SF-295
[48] = test system: NCI-H23
[49] = test system: NCI/ADR-RES
[50] = test system: SK-OV-3
[51] = test system: SF-268
[52] = test system: A498
[53] = test system: SF-539
[54] = test system: HCC 2998
[55] = test system: LOX IMVI

Cc1cccc2oc3c(c(=O)c12)CC(O)C(C)(C)O3 (stereo not given)
GI50 [1]: 45.8 µM (inactive) | GI50 [2]: > 100 µM (inactive) | GI50 [3]: > 100 µM (inactive) | GI50 [4]: > 100 µM (inactive) | GI50 [5]: > 100 µM (inactive) | GI50 [6]: > 100 µM (inactive) | GI50 [7]: 35.9 µM (inactive) | GI50 [8]: > 100 µM (inactive) | GI50 [9]: > 100 µM (inactive) | GI50 [10]: > 100 µM (inactive) | GI50 [11]: > 100 µM (inactive) | GI50 [12]: > 100 µM (inactive) | GI50 [13]: 56.1 µM (inactive) | GI50 [14]: > 100 µM (inactive) | GI50 [15]: > 100 µM (inactive) | GI50 [16]: > 100 µM (inactive) | GI50 [17]: 99.1 µM (inactive) | GI50 [18]: 23.9 µM (inactive) | GI50 [19]: > 100 µM (inactive) | GI50 [20]: > 100 µM (inactive) | GI50 [21]: 28.2 µM (inactive) | GI50 [22]: > 100 µM (inactive) | GI50 [23]: 38.5 µM (inactive) | GI50 [24]: > 100 µM | GI50 [25]: > 100 µM (inactive) | GI50 [26]: > 100 µM (inactive) | GI50 [27]: > 100 µM (inactive) | GI50 [28]: 51.6 µM (inactive) | GI50 [29]: > 100 µM (inactive) | GI50 [30]: > 100 µM (inactive) | GI50 [31]: > 100 µM (inactive) | GI50 [32]: > 100 µM (inactive) | GI50 [33]: 74.1 µM (inactive) | GI50 [34]: > 100 µM (inactive) | GI50 [35]: > 100 µM (inactive) | GI50 [36]: > 100 µM (inactive) | GI50 [37]: > 100 µM (inactive) | GI50 [38]: > 100 µM (inactive) | GI50 [39]: 74 µM (inactive) | GI50 [40]: > 100 µM (inactive) | GI50 [41]: > 100 µM (inactive) | GI50 [42]: > 100 µM (inactive) | GI50 [43]: > 100 µM (inactive) | GI50 [44]: > 100 µM (inactive) | GI50 [45]: > 100 µM (inactive) | GI50 [46]: > 100 µM (inactive) | GI50 [47]: > 100 µM (inactive) | GI50 [48]: > 100 µM (inactive) | GI50 [49]: 79.1 µM (inactive) | GI50 [50]: > 100 µM (inactive) | GI50 [51]: > 100 µM (inactive) | GI50 [52]: > 100 µM (inactive) | GI50 [53]: > 100 µM (inactive) | GI50 [54]: > 100 µM (inactive) | GI50 [55]: 86.5 µM (inactive)
